Measured values reported in article PMC10612255, “Discovery of novel 2,3,4,5-tetrahydrospiro[benzo[c]azepine-1,1’-cyclohexan]-5-ol derivatives as PARP-1 inhibitors” (BMC Chemistry, 2023).
Read-outs that look alike come from different tables or passages of the source.

What was measured:
OVCAR-3 = experiment: MTT assay, anti-proliferative effect on OVCAR-3 cells; format: cell-based, human; conditions: read-out: IC50 OVCAR-3
Description: (§1) A549, OVCAR-3, HCT-116, and MCF-7 were purchased from American type culture collection (ATCC, USA). […] And all cell lines used in the experiment were tested for mycoplasma contamination every two weeks.
(§2) A549, OVCAR-3, HCT-116, and MCF-7 cells were seeded in 96-well plates, and then treated with target compounds for 72 h. Then, 20 µL MTT (5 mg/mL, in PBS) was added into each well, and dissolved in 150 µL DMSO after incubation for 4 h. Finally, the absorbance was measured with microplate reader (490 nm).

MCF-7 = experiment: MTT assay, anti-proliferative effect on MCF-7 cells; format: cell-based, human; conditions: read-out: IC50 MCF-7
Description: as §1, §2

HCT-116 = experiment: MTT assay, anti-proliferative effect on HCT-116 cells; format: cell-based, human; conditions: read-out: IC50 HCT-116
Description: as §1, §2

A549 = experiment: MTT assay, anti-proliferative effect on A549 cells; format: cell-based, human; conditions: read-out: IC50 A549
Description: as §1, §2

Row | Compound | IC50 (OVCAR-3; Homo sapiens, OVCAR-3, 72 h) | melting point | IC50 (MCF-7; Homo sapiens, MCF7, 72 h) | IC50 (HCT-116; Homo sapiens, HCT-116, 72 h) | IC50 (A549; Homo sapiens, A549, 72 h) | IC50 (OVCAR-3; OVCAR-3, human ovarian cancer cell line, MTT, 72 h, Mean ± SD) | IC50 (MCF-7; MCF7, human breast cancer cell line, MTT, 72 h, Mean ± SD) | IC50 (HCT-116; HCT-116, human colon cancer cell line, MTT, 72 h, Mean ± SD) | IC50 (A549; A549, human lung adenocarcinoma cell line, MTT, 72 h, Mean ± SD)
1 | Oc1ccc(-n2cc(CN3CCC(O)c4ccccc4C34CCCCC4)nn2)cc1 (stereo not drawn) [Compound 11s, 2-((1-(4-hydroxyphenyl)-1 H-1,2,3-triazol-4-yl)methyl)-2,3,4,5-tetrahydrospiro[benzo[c]azepine-1,1’-cyclohexan]-5-ol] | > 50 µM | 171.1 to 172.3 °C | > 50 µM | > 50 µM | > 50 µM | – | – | – | –
2 | Oc1ccccc1-n1cc(CN2CCC(O)c3ccccc3C23CCCCC3)nn1 (stereo not drawn) [Compound 11q, 2-((1-(2-hydroxyphenyl)-1 H-1,2,3-triazol-4-yl)methyl)-2,3,4,5-tetrahydrospiro[benzo[c]azepine-1,1’-cyclohexan]-5-ol] | 13.2 ± 4.09 µM | 156.8 to 157.2 °C | 8.72 ± 0.71 µM | > 50 µM | 10.6 ± 1.2 µM | – | – | – | –
3 | COc1ccc(-n2cc(CN3CCC(O)c4ccccc4C34CCCCC4)nn2)cc1 (stereo not drawn) [Compound 11 m, 2-((1-(4-methoxyphenyl)-1 H-1,2,3-triazol-4-yl)methyl)-2,3,4,5-tetrahydrospiro[benzo[c]azepine-1,1’-cyclohexan]-5-ol] | 6 ± 1.83 µM | 170.2 to 172.3 °C | 9.33 ± 1.33 µM | 5.87 ± 0.54 µM | 8.7 ± 4.1 µM | – | – | – | –
4 | COc1cccc(-n2cc(CN3CCC(O)c4ccccc4C34CCCCC4)nn2)c1 (stereo not drawn) [Compound 11 L, 2-((1-(3-methoxyphenyl)-1 H-1,2,3-triazol-4-yl)methyl)-2,3,4,5-tetrahydrospiro[benzo[c]azepine-1,1’-cyclohexan]-5-ol] | 6.14 ± 0.56 µM | 172.3 to 174.1 °C | 8.54 ± 1.65 µM | 11.7 ± 4.88 µM | 11.1 ± 2.98 µM | – | – | – | –
5 | N#Cc1ccccc1-n1cc(CN2CCC(O)c3ccccc3C23CCCCC3)nn1 (stereo not drawn) [Compound 11t, 2-(4-((5-hydroxy-4,5-dihydrospiro[benzo[c]azepine-1,1’-cyclohexan]-2(3 H)-yl)methyl)-1 H-1,2,3-triazol-1-yl)benzonitrile] | > 50 µM | – | > 50 µM | > 50 µM | > 50 µM | – | – | – | –
6 | OC1CCN(Cc2cn(-c3cccc(Br)c3)nn2)C2(CCCCC2)c2ccccc21 (stereo not drawn) [Compound 11o, 2-((1-(3-bromophenyl)-1 H-1,2,3-triazol-4-yl)methyl)-2,3,4,5-tetrahydrospiro[benzo[c]azepine-1,1’-cyclohexan]-5-ol] | 4.2 ± 0.48 µM | 169.3 to 170.2 °C | 7.99 ± 2.53 µM | 10.8 ± 2.11 µM | 7.4 ± 1.75 µM | – | – | – | –
7 | OC1CCN(Cc2cn(-c3ccc(Br)cc3)nn2)C2(CCCCC2)c2ccccc21 (stereo not drawn) [Compound 11p, 2-((1-(4-bromophenyl)-1 H-1,2,3-triazol-4-yl)methyl)-2,3,4,5-tetrahydrospiro[benzo[c]azepine-1,1’-cyclohexan]-5-ol] | 12.7 ± 1.43 µM | – | 16.4 ± 4.37 µM | 9.93 ± 3.01 µM | 9.58 ± 2.53 µM | – | – | – | –
8 | OC1CCN(Cc2cn(-c3cccc(Cl)c3)nn2)C2(CCCCC2)c2ccccc21 (stereo not drawn) [Compound 11i, 2-((1-(3-chlorophenyl)-1 H-1,2,3-triazol-4-yl)methyl)-2,3,4,5-tetrahydrospiro[benzo[c]azepine-1,1’-cyclohexan]-5-ol] | 4.28 ± 0.77 µM | 168.1 to 168.8 °C | 6.34 ± 3.17 µM | 10.8 ± 2.95 µM | 13.6 ± 2.47 µM | – | – | – | –
9 | COc1ccccc1-n1cc(CN2CCC(O)c3ccccc3C23CCCCC3)nn1 (stereo not drawn) [Compound 11k, 2-((1-(2-methoxyphenyl)-1 H-1,2,3-triazol-4-yl)methyl)-2,3,4,5-tetrahydrospiro[benzo[c]azepine-1,1’-cyclohexan]-5-ol] | 10.5 ± 0.09 µM | – | 7.54 ± 1.05 µM | 13.1 ± 2.03 µM | 12.6 ± 5.91 µM | – | – | – | –
10 | N#Cc1cccc(-n2cc(CN3CCC(O)c4ccccc4C34CCCCC4)nn2)c1 (stereo not drawn) [Compound 11u, 3-(4-((5-hydroxy-4,5-dihydrospiro[benzo[c]azepine-1,1’-cyclohexan]-2(3 H)-yl)methyl)-1 H-1,2,3-triazol-1-yl)benzonitrile] | > 50 µM | – | > 50 µM | > 50 µM | > 50 µM | – | – | – | –
11 | OC1CCN(Cc2cn(-c3ccccc3)nn2)C2(CCCCC2)c2ccccc21 (stereo not drawn) [Compound 11a, 2-((1-phenyl-1 H-1,2,3-triazol-4-yl)methyl)-2,3,4,5-tetrahydrospiro[benzo[c]azepine-1,1’-cyclohexan]-5-ol] | 13.6 ± 2.45 µM | – | 15.5 ± 2.53 µM | 10.3 ± 2.74 µM | 9.5 ± 1.23 µM | – | – | – | –
12 | N#Cc1ccc(-n2cc(CN3CCC(O)c4ccccc4C34CCCCC4)nn2)cc1 (stereo not drawn) [Compound 11v, 4-(4-((5-hydroxy-4,5-dihydrospiro[benzo[c]azepine-1,1’-cyclohexan]-2(3 H)-yl)methyl)-1 H-1,2,3-triazol-1-yl)benzonitrile] | > 50 µM | – | > 50 µM | > 50 µM | > 50 µM | – | – | – | –
13 | Cc1ccc(-n2cc(CN3CCC(O)c4ccccc4C34CCCCC4)nn2)cc1 (stereo not drawn) [Compound 11 g, 2-((1-(p-tolyl)-1 H-1,2,3-triazol-4-yl)methyl)-2,3,4,5-tetrahydrospiro[benzo[c]azepine-1,1’-cyclohexan]-5-ol] | 4.64 ± 0.99 µM | 164.3 to 165.2 °C | 7.96 ± 1.1 µM | 9.81 ± 2.89 µM | 6.84 ± 1.68 µM | – | – | – | –
14 | Oc1cccc(-n2cc(CN3CCC(O)c4ccccc4C34CCCCC4)nn2)c1 (stereo not drawn) [Compound 11r, 2-((1-(3-hydroxyphenyl)-1 H-1,2,3-triazol-4-yl)methyl)-2,3,4,5-tetrahydrospiro[benzo[c]azepine-1,1’-cyclohexan]-5-ol] | 3.9 ± 0.26 µM | 157.4 to 158.6 °C | > 50 µM | 12.1 ± 0.98 µM | 11.9 ± 5.74 µM | – | – | – | –
15 | OC1CCN(Cc2cn(-c3ccc(Cl)cc3)nn2)C2(CCCCC2)c2ccccc21 (stereo not drawn) [Compound 11j, 2-((1-(4-chlorophenyl)-1 H-1,2,3-triazol-4-yl)methyl)-2,3,4,5-tetrahydrospiro[benzo[c]azepine-1,1’-cyclohexan]-5-ol] | 5.79 ± 1.25 µM | 165.6 to 166.3 °C | 5.27 ± 0.92 µM | 17.9 ± 1.95 µM | 18.8 ± 2.67 µM | – | – | – | –
16 | Cc1cccc(-n2cc(CN3CCC(O)c4ccccc4C34CCCCC4)nn2)c1 (stereo not drawn) [Compound 11f, 2-((1-(m-tolyl)-1 H-1,2,3-triazol-4-yl)methyl)-2,3,4,5-tetrahydrospiro[benzo[c]azepine-1,1’-cyclohexan]-5-ol] | 21.7 ± 8.94 µM | 167.3 to 168.2 °C | 8.94 ± 3.17 µM | 12.2 ± 2.01 µM | 11.8 ± 1.07 µM | – | – | – | –
17 | OC1CCN(Cc2cn(-c3cccc(F)c3)nn2)C2(CCCCC2)c2ccccc21 (stereo not drawn) [Compound 11c, 2-((1-(3-fluorophenyl)-1 H-1,2,3-triazol-4-yl)methyl)-2,3,4,5-tetrahydrospiro[benzo[c]azepine-1,1’-cyclohexan]-5-ol] | 7.65 ± 2.56 µM | – | 7.6 ± 1.96 µM | 12.6 ± 2.43 µM | 4.29 ± 0.56 µM | – | – | – | –
18 | Cc1ccccc1-n1cc(CN2CCC(O)c3ccccc3C23CCCCC3)nn1 (stereo not drawn) [Compound 11e, 2-((1-(o-tolyl)-1 H-1,2,3-triazol-4-yl)methyl)-2,3,4,5-tetrahydrospiro[benzo[c]azepine-1,1’-cyclohexan]-5-ol] | 7.95 ± 3.35 µM | 165.2 to 166 °C | 9.33 ± 4.08 µM | 9.22 ± 4.57 µM | 15.6 ± 2.8 µM | – | – | – | –
19 | OC1CCN(Cc2cn(-c3ccc(F)cc3)nn2)C2(CCCCC2)c2ccccc21 (stereo not drawn) [Compound 11d, 2-((1-(4-fluorophenyl)-1 H-1,2,3-triazol-4-yl)methyl)-2,3,4,5-tetrahydrospiro[benzo[c]azepine-1,1’-cyclohexan]-5-ol] | 17.1 ± 1.5 µM | 166.2 to 166.8 °C | 16.2 ± 3.88 µM | 8.76 ± 3.11 µM | 4.88 ± 1.18 µM | – | – | – | –
20 | OC1CCN(Cc2cn(-c3ccccc3Cl)nn2)C2(CCCCC2)c2ccccc21 (stereo not drawn) [Compound 11 h, 2-((1-(2-chlorophenyl)-1 H-1,2,3-triazol-4-yl)methyl)-2,3,4,5-tetrahydrospiro[benzo[c]azepine-1,1’-cyclohexan]-5-ol] | 4.44 ± 0.1 µM | 167.9 to 168.3 °C | 6.5 ± 1.78 µM | 8.97 ± 3.16 µM | 15.1 ± 1.18 µM | – | – | – | –
21 | CNCc1ccc(-c2[nH]c3cc(F)cc4c3c2CCNC4=O)cc1 [Rucaparib, reference compound] | – | – | – | – | – | 2.41 ± 0.13 µM | 13 ± 0.28 µM | 13.5 ± 0.17 µM | 4.91 ± 0.11 µM
22 | OC1CCN(Cc2cn(-c3ccccc3Br)nn2)C2(CCCCC2)c2ccccc21 (stereo not drawn) [Compound 11n, 2-((1-(2-bromophenyl)-1 H-1,2,3-triazol-4-yl)methyl)-2,3,4,5-tetrahydrospiro[benzo[c]azepine-1,1’-cyclohexan]-5-ol] | 12.6 ± 1.55 µM | 168.2 to 169.8 °C | 10.6 ± 0.85 µM | 15.7 ± 1.98 µM | 17.9 ± 3.94 µM | – | – | – | –
